What was measured:
[1] = tested on: CCL17 secretion in peripheral human whole blood; assay: Human Whole Blood (HWB) CCL17 TR-FRET Assay (IL-13 stimulated CCL17 secretion); type: cell-based; details: Homo sapiens, 48 h, human whole blood, 10 ng/mL IL13, 48 hours
Outline: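 Heparin-anticoagulated human blood; cpd 11-pt 3-fold dilution, duplicate, 2 h 37 °C preinc; IL-13 10 ng/mL final, 48 h 37 °C; spin, serum CCL17 by TR-FRET ELISA, 16 h RT, 665/615 ratio; IC50.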

[2] = molecular target: T1, STAT6 (Homo sapiens, UniProt P42226); assay: STAT6 Reporter Luciferase Assay (IL-13 stimulated HaCaT keratinocyte NanoLuc reporter cells); type: cell-based; details: IL-13 stimulated HaCaT STAT6 NanoLuc reporter cells; read-out: Reporter EC50
T1 construct: stably transfected HaCaT keratinocyte cell line, which expresses NanoLuc luciferase reporter gene under the transcriptional control of the STAT6 responsive promoter; endogenous in cells; host or cells: HaCaT keratinocyte reporter cell line (stably transfected with a NanoLuc reporter)
T1 sequence (P42226 1-847): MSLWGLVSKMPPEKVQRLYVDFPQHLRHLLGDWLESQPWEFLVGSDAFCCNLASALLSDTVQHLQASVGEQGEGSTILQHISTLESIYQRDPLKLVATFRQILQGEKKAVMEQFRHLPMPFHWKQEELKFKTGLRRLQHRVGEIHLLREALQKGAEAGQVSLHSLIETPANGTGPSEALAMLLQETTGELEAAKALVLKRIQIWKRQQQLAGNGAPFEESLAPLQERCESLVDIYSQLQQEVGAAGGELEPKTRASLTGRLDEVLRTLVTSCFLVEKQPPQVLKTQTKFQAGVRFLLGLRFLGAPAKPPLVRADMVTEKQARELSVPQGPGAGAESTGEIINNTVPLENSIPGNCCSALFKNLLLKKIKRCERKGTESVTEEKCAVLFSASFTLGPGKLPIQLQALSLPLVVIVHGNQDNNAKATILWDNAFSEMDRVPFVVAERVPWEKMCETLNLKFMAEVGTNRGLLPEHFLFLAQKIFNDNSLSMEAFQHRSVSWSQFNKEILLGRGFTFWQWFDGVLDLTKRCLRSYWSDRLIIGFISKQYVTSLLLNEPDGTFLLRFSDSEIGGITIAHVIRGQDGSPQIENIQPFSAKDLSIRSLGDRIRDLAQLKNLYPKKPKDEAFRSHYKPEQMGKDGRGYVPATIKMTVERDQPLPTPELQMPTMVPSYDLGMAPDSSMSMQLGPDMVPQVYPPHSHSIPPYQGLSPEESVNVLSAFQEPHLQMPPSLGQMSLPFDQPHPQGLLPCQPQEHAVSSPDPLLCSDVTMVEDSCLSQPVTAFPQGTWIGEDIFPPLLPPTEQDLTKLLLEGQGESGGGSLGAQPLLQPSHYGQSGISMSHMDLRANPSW
Outline: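 Compounds were tested as 11-point, 4-fold series in duplicate, applied for 2 h at 37 °C in low-serum (2% FBS) DMEM. The cells were a stable HaCaT line with NanoLuc under a STAT6-responsive IL-13Ra2 promoter. After 4 h with 0.12 nM IL-13, Nano-Glo luminescence was measured.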

Compound	IC50 [1] [nM]	EC50 [2] [nM]
CC(C)n1nc(C(=O)NCc2ccc(NC(=O)N3CCC4(CCNCC4)CC3)cc2)c2c1[C@@H](C)CN(c1ccc(C(=O)N(C)C)cc1)C2 [Example 625, (S)-N-(4-((5-(4-(dimethylcarbamoyl)phenyl)-1-isopropyl-7-methyl-4,5,6,7-tetrahydro-1H-pyrazolo[4,3-c]pyridine-3-carboxamido)methyl)phenyl)-3,9-diazaspiro[5.5]undecane-3-carboxamide]	24	10
CC(C)n1nc(C(=O)NCc2ccc(NC(=O)N3CC4(CCNCC4)C3)cc2)c2c1[C@@H](C)CN(c1ccc(C(=O)N(C)C)cc1)C2 [Example 626, (S)-N-(4-(2,7-diazaspiro[3.5]nonane-2-carboxamido)benzyl)-5-(4-(dimethylcarbamoyl)phenyl)-1-isopropyl-7-methyl-4,5,6,7-tetrahydro-1H-pyrazolo[4,3-c]pyridine-3-carboxamide]	88	38
CC(C)n1nc(C(=O)NCc2ccc(NC(=O)N3CCNCC3)cc2Cl)c2c1[C@@H](C)CN(c1ccc(C(=O)N(C)C)cc1)C2 [Example 630, (S)-N-(2-chloro-4-(piperazine-1-carboxamido)benzyl)-5-(4-(dimethylcarbamoyl)phenyl)-1-isopropyl-7-methyl-4,5,6,7-tetrahydro-1H-pyrazolo[4,3-c]pyridine-3-carboxamide]	55	9
CC(C)n1nc(C(=O)NCc2ccc(NC(=O)N3CCN(C)CC3)cc2)c2c1[C@@H](C)CN(c1ccc(-n3nccn3)cn1)C2 [Example 631, (S)-5-(5-(2H-1,2,3-triazol-2-yl)pyridin-2-yl)-1-isopropyl-7-methyl-N-(4-(4-methylpiperazine-1-carboxamido)benzyl)-4,5,6,7-tetrahydro-1H-pyrazolo[4,3-c]pyridine-3-carboxamide]	24	1
CC(C)n1nc(C(=O)NCc2ccc(NC(=O)N3CC4(CCN(C)CC4)C3)c(F)c2)c2c1[C@@H](C)CN(c1ccc(-n3ccccc3=O)cn1)C2 [Example 632, (S)-N-(3-fluoro-4-(7-methyl-2,7-diazaspiro[3.5]nonane-2-carboxamido)benzyl)-1-isopropyl-7-methyl-5-(2-oxo-2H-[1,3′-bipyridin]-6′-yl)-4,5,6,7-tetrahydro-1H-pyrazolo[4,3-c]pyridine-3-carboxamide]	39	5
CC(C)n1nc(C(=O)NCc2ccc(NC(=O)N3CCC4(CC3)CN(C)C4)cc2)c2c1[C@@H](C)CN(c1ccc(-n3ccccc3=O)cn1)C2 [Example 633, (S)-1-isopropyl-7-methyl-N-(4-(2-methyl-2,7-diazaspiro[3.5]nonane-7-carboxamido)benzyl)-5-(2-oxo-2H-[1,3′-bipyridin]-6′-yl)-4,5,6,7-tetrahydro-1H-pyrazolo[4,3-c]pyridine-3-carboxamide]	13	2
CC(C)n1nc(C(=O)NCc2ccc(NC(=O)N3CC4(CCN(C)CC4)C3)cc2)c2c1[C@@H](C)CN(c1ccc(-n3ccccc3=O)cn1)C2 [Example 634, (S)-1-isopropyl-7-methyl-N-(4-(7-methyl-2,7-diazaspiro[3.5]nonane-2-carboxamido)benzyl)-5-(2-oxo-2H-[1,3′-bipyridin]-6′-yl)-4,5,6,7-tetrahydro-1H-pyrazolo[4,3-c]pyridine-3-carboxamide]	29	4
CC(C)n1nc(C(=O)NCc2ccc(NC(=O)N(C)C)cc2)c2c1[C@@H](C)CN(c1ccc(C(=O)N(C)CCN3CCOCC3)cc1)C2 [Example 636, (S)-N-(4-(3,3-dimethylureido)benzyl)-1-isopropyl-7-methyl-5-(4-(methyl(2-morpholinoethyl)carbamoyl)phenyl)-4,5,6,7-tetrahydro-1H-pyrazolo[4,3-c]pyridine-3-carboxamide]	33	3
CC(C)n1nc(C(=O)NCc2ccc(NC(=O)N(C)C)cc2)c2c1[C@@H](C)CN(c1ccc(C(=O)N(C)CC3CCNCC3)cc1)C2 [Example 637, (S)-N-(4-(3,3-dimethylureido)benzyl)-1-isopropyl-7-methyl-5-(4-(methyl(piperidin-4-ylmethyl)carbamoyl)phenyl)-4,5,6,7-tetrahydro-1H-pyrazolo[4,3-c]pyridine-3-carboxamide]	48	13

Further molecules by falling IC50 [1], results first:

IC50 [1] [nM]	EC50 [2] [nM]	Compound
390	121	CC(C)n1nc(C(=O)NCc2ccc(NC(=O)N(C)C)cc2)c2c1[C@@H](C)CN(c1ccc(C(=O)N(C)CC3CN(C)C3)cc1)C2 [Example 629, (S)-N-(4-(3,3-dimethylureido)benzyl)-1-isopropyl-7-methyl-5-(4-(methyl((1-methylazetidin-3-yl)methyl)carbamoyl)phenyl)-4,5,6,7-tetrahydro-1H-pyrazolo[4,3-c]pyridine-3-carboxamide]
71	14	CC(C)n1nc(C(=O)NCc2ccc(NC(=O)N(C)C)cc2)c2c1[C@@H](C)CN(c1ccc(C(=O)N(C)CC3CCN(C)CC3)cc1)C2 [Example 635, (S)-N-(4-(3,3-dimethylureido)benzyl)-1-isopropyl-7-methyl-5-(4-(methyl((1-methylpiperidin-4-yl)methyl)carbamoyl)phenyl)-4,5,6,7-tetrahydro-1H-pyrazolo[4,3-c]pyridine-3-carboxamide]
37	13	CC(C)n1nc(C(=O)NCc2ccc(NC(=O)N3CCC4(CC3)CNC4)cc2)c2c1[C@@H](C)CN(c1ccc(C(=O)N(C)C)cc1)C2 [Example 623, (S)-N-(4-(2,7-diazaspiro[3.5]nonane-7-carboxamido)benzyl)-5-(4-(dimethylcarbamoyl)phenyl)-1-isopropyl-7-methyl-4,5,6,7-tetrahydro-1H-pyrazolo[4,3-c]pyridine-3-carboxamide]
23	7	CC(C)n1nc(C(=O)NCc2ccc(NC(=O)N3CC(N)C3)cc2)c2c1[C@@H](C)CN(c1ccc(C(=O)N(C)C)cc1)C2 [Example 627, (S)-N-(4-(3-aminoazetidine-1-carboxamido)benzyl)-5-(4-(dimethylcarbamoyl)phenyl)-1-isopropyl-7-methyl-4,5,6,7-tetrahydro-1H-pyrazolo[4,3-c]pyridine-3-carboxamide]
18	1	CC(C)n1nc(C(=O)NCc2ccc(NC(=O)N3CCC(CC4CCNCC4)CC3)cc2)c2c1[C@@H](C)CN(c1ccc(C(=O)N(C)C)cc1)C2 [Example 624, (S)-5-(4-(dimethylcarbamoyl)phenyl)-1-isopropyl-7-methyl-N-(4-(4-(piperidin-4-ylmethyl)piperidine-1-carboxamido)benzyl)-4,5,6,7-tetrahydro-1H-pyrazolo[4,3-c]pyridine-3-carboxamide]
4	1	CC(C)n1nc(C(=O)NCc2ccc(NC(=O)N3CCC4(CC3)CNCCO4)cc2)c2c1[C@@H](C)CN(c1ccc(C(=O)N(C)C)cc1)C2 [Example 628, (S)-N-(4-((5-(4-(dimethylcarbamoyl)phenyl)-1-isopropyl-7-methyl-4,5,6,7-tetrahydro-1H-pyrazolo[4,3-c]pyridine-3-carboxamido)methyl)phenyl)-1-oxa-4,9-diazaspiro[5.5]undecane-9-carboxamide]

— patent publication US20250320213A1, “Nitrogen-Containing Heterocyclic Compounds” (Pfizer Inc., priority 2024, published 2025)
